Reference: paper PMC8589634 (The Journal of Prevention of Alzheimer's Disease, 2021)
Each block holds one molecule with its values, some of them ahead of it.

Tests used:
[1] = tested on: patients with mild or mild/moderate AD; assay: LMTM Phase 3 exposure groups against historical placebo meta-analysis; format: in vivo, human; conditions: 8mg/day
[2] = tested on: healthy volunteers
[3] = tested on: healthy volunteers; assay: Brain spectroscopy after NR supplementation; format: in vivo, human; conditions: two weeks of NR supplementation
[4] = tested on: AD and PD patients; assay: Posiphen phase 2a studies in AD and PD; format: in vivo, human
[5] = tested on: patients with agitation in Alzheimer’s dementia; assay: Brexpiprazole phase 3 studies, post-hoc CMAI-IPA; format: in vivo, human
[6] = tested on: patients with agitation in Alzheimer’s dementia; assay: Brexpiprazole phase 3 pooled CGI-S and CMAI responder analysis; format: in vivo, human
[7] = tested on: PSEN1-AD neurons; conditions: screen of existing drug library; earlier work of the authors; cited from earlier work
[8] = tested on: patients with MCI or PD; assay: Cerebral blood flow by pCASL MRI after clenbuterol; format: in vivo, human
[9] = tested on: patients with MCI or PD; assay: Safety and tolerability of single doses of clenbuterol; format: in vivo, human
[10] = tested on: patients with AD and agitation/aggression; assay: Lit-AD randomized trial of low-dose lithium; format: in vivo, human
[11] = tested on: subjects with moderate AD; assay: Masupirdine phase-2 trial, NPI-12 psychosis subgroup analysis; format: in vivo, human
[12] = tested on: subjects with moderate AD; assay: Masupirdine phase-2 trial, NPI-12 agitation/aggression subgroup analysis; format: in vivo, human
[13] = tested on: patients with PD psychosis and PD dementia; assay: HARMONY trial, post hoc PD dementia subgroup; format: in vivo, human
[14] = tested on: patients with mild-to-moderate AD; assay: Open-label study of simufilam, interim analysis; format: in vivo, human
[15] = tested on: AD patients; conditions: cited from earlier work
[16] = tested on: GRN mutation carriers; conditions: repeat administration; earlier Phase 2 study; cited from earlier work
[17] = first dose 80µg, 3 hours post-dose, n=8
[18] = second visit, 1mg nadolol 2.5 hours before clenbuterol, n=4
[19] = second visit, clenbuterol monotherapy, n=4
[20] = 80µg single dose, patients affected

Molecule: CN(C)c1ccc2c(c1)Sc1cc(N(C)C)ccc1N2.CS(=O)(=O)O.CS(=O)(=O)O [LMTM, leuco-methylthionine dihydromesylate]
decline on ADAS-cog11 over 12 months ([1]; above-threshold plasma levels): 1.58±0.46 units | decline on ADAS-cog11 over 12 months ([1]; below-threshold exposure): 4.74±0.60 units

Molecule: CC(=O)Nc1nc(F)c(CN2CC[C@H](OCc3noc(C)n3)C[C@@H]2C)s1 [LY3372689]
food effect on AUC (3 mg QD, fed vs fasted): minimal effect | food effect, decrease of Cmax (3 mg QD, fed vs fasted): 43% | food effect, increase of tmax (3 mg QD, fed vs fasted): 5 h | exposure (AUC and Cmax) vs dose (SAD 0.15–16 mg and MAD 1, 3, 7 mg): generally dose-proportional | renal clearance (single or multiple dosing): not a major contributor | maximum tolerated dose ([2]; SAD): not achieved | tolerability ([2]; up to the highest dose in each study): generally well tolerated

CK/ATPase activity and GSH levels ([3]; N=4): Only a small difference
Molecule: NC(=O)c1ccc[n+]([C@@H]2O[C@H](CO)[C@@H](O)[C@H]2O)c1 [NR, Nicotinamide Riboside]
brain NAD+ and redox ratio (RR) ([3]; N=4, preliminary): elevations

Molecule: CN1CC[C@]2(C)c3cc(OC(=O)Nc4ccccc4)ccc3N(C)[C@H]12 [Posiphen]
Aβ42/40 ratio ([4]; AD patients): improved | axonal health as measured by NfL ([4]; AD patients): improved axonal health | sAPPα, sAPPβ, Tau, p-Tau ([4]; AD patients): reduced | ADAS-Cog 11 ([4]; AD patients, 80 mg QD for 25 +/− 2 days, vs baseline): statistically significant improvements | WAIS coding ([4]; AD patients, 80 mg QD, vs baseline): statistically significant improvements | UPDRS, all 4 parts ([4]; PD patients): strong trends | WAIS coding test ([4]; PD patients): statistically significant improvements | inflammation ([4]; treated patients, to baseline or to placebo): statistically significantly lowered

Molecule: O=c1ccc2ccc(OCCCCN3CCN(c4cccc5sccc45)CC3)cc2[nH]1 [brexpiprazole]
CMAI-IPA, adjusted mean difference vs placebo ([5]; Study 1, 2 mg/day (n=138) vs placebo (n=131), baseline to Week 12, MMRM): −2.34 | CMAI-IPA, adjusted mean difference vs placebo ([5]; Study 2, titrated to 2 mg/day (n=77) vs placebo (n=74), Week 12, MMRM): −2.79 | patients with CGI-S score of 1 or 2 ([6]; 2 mg/day, week 12, 140/237): 59.1% | patients with improvement in CMAI of at least 10 points ([6]; 2 mg/day, week 12, 177/237): 74.7% | patients with improvement on CGI-S of at least 1 point ([6]; 2 mg/day, week 12, 188/237): 79.3% | difference vs placebo, CGI-S score of 1 or 2 ([6]; week 12, p = 0.0033): 13.5% | difference vs placebo, CMAI improvement of at least 10 points ([6]; week 12, p = 0.0550): 8.0% | difference vs placebo, CGI-S improvement of at least 1 point ([6]; week 12, p=0.0048): 11.4%

Molecule: CC(C)C[C@H]1C(=O)N2CCC[C@H]2[C@]2(O)O[C@](NC(=O)[C@@H]3C=C4c5cccc6[nH]c(Br)c(c56)C[C@H]4N(C)C3)(C(C)C)C(=O)N12 [bromocriptine]
modification of Aβ production [7]: most potent modifier of Aβ production

Molecule: CC(C)(C)NCC(O)c1cc(Cl)c(N)c(Cl)c1 (centres unmarked) [clenbuterol]
increase in CBF, amygdala [8, 17]: 14.3% | increase in CBF, hippocampus [8, 17]: 20.3% | increase in CBF, thalamus [8, 17]: 13.1% | Mean Relative Difference in perfusion, hippocampus [8, 18]: 13.7±5.9% | Mean Relative Difference in perfusion, thalamus [8, 18]: 16.2±5.2% | Mean Relative Difference in perfusion, amygdala [8, 19]: 8.1±11.5% | Mean Relative Difference in perfusion, hippocampus [8, 19]: 18.6±15.1% | Mean Relative Difference in perfusion, thalamus [8, 19]: 21.0±10.8% | increase in heart rate, mean [SD] ([9]; 80µg single dose): 12.9 [8.2] bpm | palpitations [9, 20]: 1/8 | tremor [9, 20]: 4/8 | safety and tolerability ([9]; single doses of 80µg): safe and well tolerated

Molecule: O=C([O-])[O-].[Li+].[Li+] [lithium, lithium carbonate]
moderate or marked improvement (CGI) ([10]; 12 weeks): 36.8% | proportion of responders ([10]; 30% reduction in NPI agitation/aggression plus psychosis and CGI much or very much improved, 12 weeks): 31.6% | reduction vs placebo in patients with high Young Mania Rating Scale scores (β) ([10]; 95%CI 1.18 to 8.94): 5.06 | improvement on NPI delusions and irritability/lability ([10]; exploratory analyses): greater than placebo | change in NPI agitation/aggression ([10]; lithium carbonate 150–600 mg daily, 12 weeks, linear mixed effects model): not significantly superior to placebo | safety outcomes ([10]; vs placebo): did not differ significantly from placebo

Molecule: COc1ccc2c(c1)c(CN1CCN(C)CC1)cn2S(=O)(=O)c1ccccc1Br [masupirdine]
NPI-12 psychosis score vs placebo ([11]; 50 mg, Week 4 & 13, p<0.05, MMRM): significant reduction | NPI-12 psychosis score vs placebo ([11]; 100 mg, Week 26, p<0.1): trend | effect size (Cohen’s d), agitation/aggression ([12]; 50 mg, end of 26 weeks): 0.66 | NPI-12 agitation/aggression scores ([12]; 50 & 100 mg arms, Week 13, MMRM): statistically significant (p<0.01) reduction

Molecule: CC(C)(C)NCC(O)COc1cccc2c1CC(O)C(O)C2 (centres unmarked) [nadolol]
peripheral cardiovascular and metabolic effects of clenbuterol ([9]; 1mg nadolol 2.5 hours before clenbuterol): mostly eliminated

decreased appetite ([13]; open-label period): 8.2% | fall ([13]; open-label period): 6.1% | insomnia ([13]; open-label period): 8.2% | somnolence ([13]; open-label period): 8.2% | urinary tract infection ([13]; open-label period): 6.1% | weight decreased ([13]; open-label period): 8.2% | MMSE mean change from baseline ([13]; open-label, baseline to week 12, SE 0.66): 0.3 | ESRS-A mean change from baseline ([13]; open-label, baseline to week 12, SE 0.74): −1.7
Molecule: CC(C)COc1ccc(CNC(=O)N(Cc2ccc(F)cc2)C2CCN(C)CC2)cc1 [pimavanserin]
sustained response at weeks 8 and 12 ([13]; 34 mg, open-label period, 36 of 49): 73.5% | patients who met relapse criteria ([13]; at the time the study was stopped, n=16): 1 | any TEAE ([13]; double-blind period): 31.3% | serious TEAEs ([13]; double-blind period): No patients | risk of psychosis relapse, hazard ratio vs placebo ([13]; double-blind period, Cox regression, 95% CI 0.016, 0.166): 0.052 | any TEAE ([13]; open-label period): 46.9% | serious TEAE ([13]; open-label period): 10.2% | complete response (SAPS-H+D score=0) ([13]; week 12, of 38 patients evaluated): 42.1%

Molecule: CN1CCC2(CC1)NCC(=O)N2Cc1ccccc1 [simufilam]
ADAS-Cog11 mean change from baseline to Month 12 ([14]; 100 mg twice-daily oral, first 50 subjects, open-label): −3.23 ± 6.25 points | safety and tolerability ([14]; 12 months): safe and well-tolerated | subjects with no neuropsychiatric symptoms (NPI) ([14]; 12 months, baseline 34%): over 50% | ADAS-Cog11 score, mean ([14]; Month 12, Day 1 mean 16.73 ± 7.86): 13.51 ± 9.20 | subjects with improved ADAS-Cog11 scores ([14]; baseline to Month 12, 50 subjects): 68% | ADAS-Cog11 median change ([14]; baseline to Month 12, first 50 subjects): −4.0 points

Molecule: Sola: monoclonal antibody comparator (Expedition 1–3)
ADAS-Cog effect size, slowing ([15]; Expedition 1+2 mild individuals): 34.8% | ADCS-ADL effect size, slowing ([15]; Expedition 3): 15.4% | CDR-SB effect size, slowing ([15]; Expedition 3): 15.4%

B1: AL001: human monoclonal IgG1 antibody that blocks and downregulates Sortilin (antibody, chains of the INN, looked up, V domains shown)
VH: QVQLQESGPGLVKPSETLSLTCAVSGYSISSGYYWGWIRQPPGKGLEWIGTIYHSGSTYYNPSLKSRVTISVDTSKNQFSLKLSSVTAADTAVYYCARQGSIKQGYYGMDVWGQGTTVTVSS
VL: DIVMTQSPLSLPVTPGEPASISCRSSQSLLRSTGYNYLDWYLQKPGQSPQLLIYLGSNRASGVPDRFSGSGSGTDFTLKISRAEAEDVGVYYCMQQQEAPLTFGGGTKVEIK
CSF PGRN levels [16]: normalize CSF PGRN levels
